Laboratory results from patent publication US12194051B2, “5-azaindazole derivatives as adenosine receptor antagonists” (MERCK PATENT GMBH, priority 2018, dated 2025).

Legend:
[1] = molecular target: T1, human A2A receptors (Homo sapiens, UniProt P29274); assay: Inhibition of human A2A receptor in recombinant HEK293 cells, cAMP quantification (HTRF); assay type: cell-based; settings: read-out: A2A (Category)
T1 construct: expressed in transfected cells; host or cells: HEK293
Procedure: (§1) The functional activities of human A2A and A2B receptors were determined by quantification of cAMP, being the second messenger for adenosine receptors.
(§2) After a 15 min incubation, HTRF reagents (cAMP dynamic 2, Cis Bio) were added and the cellular cAMP levels were determined using the ENVISION (Perkin Elmer) plate reader.

[2] = molecular target: T2, human A2B receptors (Homo sapiens, UniProt P29275); assay: Inhibition of human A2B receptor in recombinant HEK293 cells, cAMP quantification (HTRF); assay type: cell-based; settings: read-out: A2B (Category)
T2 construct: expressed in transfected cells; host or cells: HEK293
T2 sequence (P29275 1-332): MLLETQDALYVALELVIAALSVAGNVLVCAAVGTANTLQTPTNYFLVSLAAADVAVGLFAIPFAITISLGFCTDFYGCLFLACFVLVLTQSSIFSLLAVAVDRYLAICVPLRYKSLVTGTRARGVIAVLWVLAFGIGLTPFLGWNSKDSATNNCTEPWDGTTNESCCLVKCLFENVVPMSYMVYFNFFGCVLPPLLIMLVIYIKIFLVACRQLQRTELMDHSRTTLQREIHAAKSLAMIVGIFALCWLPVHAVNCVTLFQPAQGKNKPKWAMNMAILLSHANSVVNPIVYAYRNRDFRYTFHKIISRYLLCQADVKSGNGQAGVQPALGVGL
Procedure: as §1, §2

T1 sequence (P29274 whole entry): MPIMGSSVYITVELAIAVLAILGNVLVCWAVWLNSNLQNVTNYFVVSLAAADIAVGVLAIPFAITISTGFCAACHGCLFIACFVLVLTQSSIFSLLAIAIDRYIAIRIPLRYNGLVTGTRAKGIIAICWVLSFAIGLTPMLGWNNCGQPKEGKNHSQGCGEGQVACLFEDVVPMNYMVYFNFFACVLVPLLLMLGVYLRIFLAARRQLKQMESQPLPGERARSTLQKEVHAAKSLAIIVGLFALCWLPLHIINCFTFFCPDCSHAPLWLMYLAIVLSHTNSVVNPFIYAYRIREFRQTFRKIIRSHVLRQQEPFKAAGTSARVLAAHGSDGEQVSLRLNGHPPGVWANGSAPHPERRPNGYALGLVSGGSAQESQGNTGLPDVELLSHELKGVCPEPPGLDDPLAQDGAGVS

O=C(c1cc2c(cn1)c(Nc1cccc(F)c1)nn2CC(F)(F)F)N1[C@@H]2CC[C@H]1C[C@@H](O)C2 [Compound 25, [3-(3-fluoroanilino)-1-(2,2,2-trifluoroethyl)pyrazolo[4,3-c]pyridin-6-yl]-(3-endo-hydroxy-8-azabicyclo[3.2.1]octan-8-yl)methanone]
IC50 [1]: < 100 nM
IC50 [2]: < 100 nM

O=C(c1cc2c(cn1)c(Nc1cnccn1)nn2CC(F)(F)F)N1CCOC[C@@H](F)C1 [Compound 122, [(6S)-6-fluoro-1,4-oxazepan-4-yl]-[3-(pyrazin-2ylamino)-1-(2,2,2-trifluoro-ethyl)-1H-pyrazolo[4,3-c]pyridin-6-yl]-methanone]
IC50 [1]: < 100 nM
IC50 [2]: < 100 nM

O=C(c1cc2c(cn1)c(Nc1ccc(Cl)cc1)nn2CC(F)(F)F)N1CCCOCC1 [Compound 38, [3-(4-chloroanilino)-1-(2,2,2-trifluoroethyl)pyrazolo[4,3-c]pyridin-6-yl]-(1,4-oxazepan-4-yl)methanone]
IC50 [1]: < 100 nM
IC50 [2]: < 100 nM

[2H]C1([2H])COCCN(C(=O)c2cc3c(cn2)c(Nc2ccccn2)nn3CC(F)(F)F)C1 [Compound 59, (6,6-dideuterio-1,4-oxazepan-4-yl)-[3-(2-pyridylamino)-1-(2,2,2-trifluoroethyl)pyrazolo[4,3-c]pyridin-6-yl]methanone]
IC50 [1]: < 100 nM
IC50 [2]: < 100 nM

N#Cc1ccc(Nc2nn(CC(F)(F)F)c3cc(C(=O)N4CCCOCC4)ncc23)cc1 [Compound 13, 4-[[6-(1,4-oxazepane-4-carbonyl)-1-(2,2,2-trifluoroethyl)pyrazolo[4,3-c]pyridin-3-yl]amino]benzonitrile]
IC50 [1]: < 100 nM
IC50 [2]: < 1000 nM

COc1ccc(Nc2nn(CC(F)(F)F)c3cc(C(=O)N4CCCOCC4)ncc23)nc1 [Compound 83, [3-(5-Methoxy-pyridin-2-ylamino)-1-(2,2,2-trifluoro-ethyl)-1H-pyrazolo[4,3-c]pyridin-6-yl]-[1,4]oxazepan-4-yl-methanone]
IC50 [1]: < 100 nM
IC50 [2]: < 100 nM

O=C(c1cc2c(cn1)c(Nc1cc(F)c(Cl)cn1)nn2CC(F)(F)F)N1CCCOCC1 [Compound 71, [3-[(5-chloro-4-fluoro-2-pyridyl)amino]-1-(2,2,2-trifluoroethyl)pyrazolo[4,3-c]pyridin-6-yl]-(1,4-oxazepan-4-yl)methanone]
IC50 [1]: < 100 nM
IC50 [2]: < 100 nM

O=C(c1cc2c(cn1)c(Nc1cncs1)nn2CC(F)(F)F)N1CCCOCC1 [Compound 84, [1,4]Oxazepan-4-yl-[3-(thiazol-5-ylamino)-1-(2,2,2-trifluoro-ethyl)-1H-pyrazolo[4,3-c]pyridin-6-yl]methanone]
IC50 [1]: < 100 nM
IC50 [2]: < 100 nM

COc1ccc(Nc2nn(CC(F)(F)F)c3cc(C(=O)N4CCCOCC4)ncc23)cc1 [Compound 11, [3-(4-methoxyanilino)-1-(2,2,2-trifluoroethyl)pyrazolo[4,3-c]pyridin-6-yl]-(1,4-oxazepan-4-yl)methanone]
IC50 [1]: < 100 nM
IC50 [2]: < 1000 nM

O=C(c1cc2c(cn1)c(Nc1ccncn1)nn2CC(F)(F)F)N1CCCOCC1 [Compound 73, [1,4]Oxazepan-4-yl-[3-(pyrimidin-4-ylamino)-1-(2,2,2-trifluoro-ethyl)-1H-pyrazolo[4,3-c]pyridin-6-yl]-methanone]
IC50 [1]: < 100 nM
IC50 [2]: < 1000 nM

O=C(c1cc2c(cn1)c(Nc1ccncn1)nn2CC(F)(F)F)N1CCC(O)CC1 [Compound 76, (4-Hydroxy-piperidin-1-yl)-[3-(pyrimidin-4-ylamino)-1-(2,2,2-trifluoro-ethyl)-1H-pyrazolo[4,3-c]pyridin-6-yl]-methanone]
IC50 [1]: < 100 nM
IC50 [2]: < 1000 nM

CS(=O)(=O)Cn1nc(Nc2ccc(F)cc2)c2cnc(C(=O)N3CCCOCC3)cc21 [Compound 27, [3-(4-fluoroanilino)-1-(methylsulfonylmethyl)pyrazolo[4,3-c]pyridin-6-yl]-(1,4-oxazepan-4-yl)methanone]
IC50 [1]: < 100 nM
IC50 [2]: < 1000 nM

CC1(O)CCN(C(=O)c2cc3c(cn2)c(Nc2ccccn2)nn3CC(F)(F)F)CC1 [Compound 53, (4-hydroxy-4-methyl-1-piperidyl)-[3-(2-pyridylamino)-1-(2,2,2-trifluoroethyl)pyrazolo[4,3-c]pyridin-6-yl]methanone]
IC50 [1]: < 100 nM
IC50 [2]: < 100 nM

O=C(c1cc2c(cn1)c(Nc1nccs1)nn2CC(F)(F)F)N1CCCOCC1 [Compound 85, [1,4]Oxazepan-4-yl-[3-(thiazol-2-ylamino)-1-(2,2,2-trifluoro-ethyl)-1H-pyrazolo[4,3-c]pyridin-6-yl]methanone]
IC50 [1]: < 100 nM
IC50 [2]: < 100 nM

O=C(c1cc2c(cn1)c(Nc1ccc(F)c(F)n1)nn2CC(F)(F)F)N1CCCOCC1 [Compound 80, [3-[(5,6-difluoro-2-pyridyl)amino]-1-(2,2,2-trifluoroethyl)pyrazolo[4,3-c]pyridin-6-yl]-(1,4-oxazepan-4-yl)methanone]
IC50 [1]: < 100 nM
IC50 [2]: < 100 nM

O=C(c1cc2c(cn1)c(Nc1ccc(F)cn1)nn2CC(F)(F)F)N1CCCOCC1 [Compound 44, [3-[(5-fluoro-2-pyridyl)amino]-1-(2,2,2-trifluoroethyl)pyrazolo[4,3-c]pyridin-6-yl]-(1,4-oxazepan-4-yl)methanone]
IC50 [1]: < 100 nM
IC50 [2]: < 100 nM

CC(C)(O)C[C@H]1CCCN1C(=O)c1cc2c(cn1)c(Nc1ccc(F)cn1)nn2CC(F)(F)F [Compound 125, [3-[(5-fluoro-2-pyridyl)amino]-1-(2,2,2-trifluoroethyl)pyrazolo[4,3-c]pyridin-6-yl]-[(2R)-2-(2-hydroxy-2-methyl-propyl)pyrrolidin-1-yl]methanone]
IC50 [1]: < 100 nM
IC50 [2]: < 1000 nM

[2H]C1([2H])COCCN(C(=O)c2cc3c(cn2)c(Nc2ccc(F)cc2)nn3CC(F)(F)F)C1 [Compound 41, (6,6-dideuterio-1,4-oxazepan-4-yl)-[3-(4-fluoroanilino)-1-(2,2,2-trifluoroethyl)pyrazolo[4,3-c]pyridin-6-yl]methanone]
IC50 [1]: < 100 nM
IC50 [2]: < 1000 nM

O=C(c1cc2c(cn1)c(Nc1cccc(F)c1)nn2CC(F)(F)F)N1CCOCC(O)C1 (centres unmarked) [Compound 32, [3-(3-fluoroanilino)-1-(2,2,2-trifluoroethyl)pyrazolo[4,3-c]pyridin-6-yl]-(6-hydroxy-1,4-oxazepan-4-yl)methanone]
IC50 [1]: < 100 nM
IC50 [2]: < 1000 nM

CS(=O)(=O)Cn1nc(Nc2ccc(Cl)cn2)c2cnc(C(=O)N3CCCOCC3)cc21 [Compound 78, [3-(5-Chloro-pyridin-2-ylamino)-1-methanesulfonylmethyl-1H-pyrazolo[4,3-c]pyridin-6-yl]-[1,4]oxazepan-4-yl-methanone]
IC50 [1]: < 100 nM
IC50 [2]: < 100 nM

O=C(c1cc2c(cn1)c(Nc1ccc(F)cn1)nn2CC(F)(F)F)N1CCC[C@H](CO)C1 [Compound 102, [3-[(5-fluoro-2-pyridyl)amino]-1-(2,2,2-trifluoroethyl)pyrazolo[4,3-c]pyridin-6-yl]-[(3S)-3-(hydroxymethyl)-1-piperidyl]methanone]
IC50 [1]: < 100 nM
IC50 [2]: < 100 nM

O=C(c1cc2c(cn1)c(Nc1cc(F)ccn1)nn2CC(F)(F)F)N1CCC(O)(C2CC2)CC1 [Compound 115, [3-(4-Fluoro-pyridin-2-ylamino)-1-(2,2,2-trifluoro-ethyl)-1H-pyrazolo[4,3-c]pyridin-6-yl]-(4-cyclopropyl-4-hydroxypiperidin-1-yl)-methanone]
IC50 [1]: < 100 nM
IC50 [2]: < 100 nM

O=C(c1cc2c(cn1)c(Nc1ccccc1F)nn2CC(F)(F)F)N1CCCOCC1 [Compound 1, [3-(2-fluoroanilino)-1-(2,2,2-trifluoroethyl)pyrazolo[4,3-c]pyridin-6-yl]-(1,4-oxazepan-4-yl)methanone]
IC50 [1]: < 100 nM
IC50 [2]: < 1000 nM

O=C(c1cc2c(cn1)c(Nc1cc(F)ccn1)nn2CC(F)(F)F)N1[C@@H]2CC[C@H]1C[C@@H](O)C2 [Compound 120, [3-[(4-fluoro-2-pyridyl)amino]-1-(2,2,2-trifluoroethyl)pyrazolo[4,3-c]pyridin-6-yl]-(3-endo-hydroxy-8-azabicyclo[3.2.1]octan-8-yl)methanone]
IC50 [1]: < 100 nM
IC50 [2]: < 100 nM

O=C(c1cc2c(cn1)c(Nc1cc(F)ccn1)nn2CC(F)(F)F)N1CCCOCC1 [Compound 46, [3-[(4-fluoro-2-pyridyl)amino]-1-(2,2,2-trifluoroethyl)pyrazolo[4,3-c]pyridin-6-yl]-(1,4-oxazepan-4-yl)methanone]
IC50 [1]: < 100 nM
IC50 [2]: < 100 nM

COc1ccnc(Nc2nn(CC(F)(F)F)c3cc(C(=O)N4CCCOCC4)ncc23)c1 [Compound 63, [3-[(4-methoxy-2-pyridyl)amino]-1-(2,2,2-trifluoroethyl)pyrazolo[4,3-c]pyridin-6-yl]-(1,4-oxazepan-4-yl)methanone]
IC50 [1]: < 100 nM
IC50 [2]: < 100 nM

O=C(c1cc2c(cn1)c(Nc1cnc(Cl)cn1)nn2CC(F)(F)F)N1CCC(O)CC1 [Compound 75, [3-(5-Chloro-pyrazin-2-ylamino)-1-(2,2,2-trifluoro-ethyl)-1H-pyrazolo[4,3-c]pyridin-6-yl]-(4-hydroxy-piperidin-1-yl)-methanone]
IC50 [1]: < 100 nM
IC50 [2]: < 100 nM

O=C(c1cc2c(cn1)c(Nc1cc(F)ccn1)nn2CC(F)(F)F)N1CCC(F)CC1 [Compound 116, (4-Fluoro-piperidin-1-yl)-[3-(4-fluoro-pyridin-2-ylamino)-1-(2,2,2-trifluoro-ethyl)-1H-pyrazolo[4,3-c]pyridin-6-yl]-methanone]
IC50 [1]: < 100 nM
IC50 [2]: < 100 nM
